These results are taken from patent US20250188030A1, “Biphenyl and Phenylpyridine Compounds” (Pfizer Inc., priority 2023, published 2025).

By IC50 is commonly meant the concentration at which inhibition is half-maximal. Low readings indicate higher potency, high ones lower potency. As usually defined, the Ki is the dissociation constant of the complex between target and ligand, obtained from inhibition or displacement.

In one test the test system is H3K9AC (HT1080 cells). The experiment in a line: H3K9AC Sandwich ELISA Assay in HT1080 cells (KAT2A primary cell-based screening assay). On the set-up: species or system Human. In outline: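 Acetylated H3K9 quantified by luminescent sandwich ELISA (total H3 capture, H3K9ac detection) on HCl lysates of HT1080 cells. Cells had 24 h compound exposure at 37 °C, top concentration 10 µM, 10-point 3-fold series, 0.1% DMSO; IC50 from four-parameter fitting.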
In general terms: An ELISA detects its analyte on a solid surface through an enzyme-linked reagent.

In the next test the test system is MM.1S cells. The experiment in a line: MM1.S 10 Day Proliferation Assay (CellTiter-Glo). The test is classed as cell-based, Human. The essentials: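 MM.1S cells, 500/well in ultra-low-attachment plates, were pre-incubated 16 h, then exposed to a 10-point 1:3 dilution series (top 10 μM final, 0.1% DMSO) for 10 days at 37 °C, with compound-containing medium refreshed at day 5. Viability was read by CellTiter-Glo luminescence; IC50 came from four-parameter fit.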
Background: ATP-based viability assays read luminescence as a measure of living cells.

In another test the target is KAT2A (Homo sapiens (Human), UniProt Q92830). Kind of test: KAT2A acetyltransferase biochemical assay (RapidFire mass spectrometry, AcCoA to CoA). The note with it: read-out: KAT2A Ki at 1 μM AcCoA, 5 μM H3 1-21 peptide, 0.5 nM KAT2A, 90-minute reaction.
KAT2A, sequence (Q92830 whole entry): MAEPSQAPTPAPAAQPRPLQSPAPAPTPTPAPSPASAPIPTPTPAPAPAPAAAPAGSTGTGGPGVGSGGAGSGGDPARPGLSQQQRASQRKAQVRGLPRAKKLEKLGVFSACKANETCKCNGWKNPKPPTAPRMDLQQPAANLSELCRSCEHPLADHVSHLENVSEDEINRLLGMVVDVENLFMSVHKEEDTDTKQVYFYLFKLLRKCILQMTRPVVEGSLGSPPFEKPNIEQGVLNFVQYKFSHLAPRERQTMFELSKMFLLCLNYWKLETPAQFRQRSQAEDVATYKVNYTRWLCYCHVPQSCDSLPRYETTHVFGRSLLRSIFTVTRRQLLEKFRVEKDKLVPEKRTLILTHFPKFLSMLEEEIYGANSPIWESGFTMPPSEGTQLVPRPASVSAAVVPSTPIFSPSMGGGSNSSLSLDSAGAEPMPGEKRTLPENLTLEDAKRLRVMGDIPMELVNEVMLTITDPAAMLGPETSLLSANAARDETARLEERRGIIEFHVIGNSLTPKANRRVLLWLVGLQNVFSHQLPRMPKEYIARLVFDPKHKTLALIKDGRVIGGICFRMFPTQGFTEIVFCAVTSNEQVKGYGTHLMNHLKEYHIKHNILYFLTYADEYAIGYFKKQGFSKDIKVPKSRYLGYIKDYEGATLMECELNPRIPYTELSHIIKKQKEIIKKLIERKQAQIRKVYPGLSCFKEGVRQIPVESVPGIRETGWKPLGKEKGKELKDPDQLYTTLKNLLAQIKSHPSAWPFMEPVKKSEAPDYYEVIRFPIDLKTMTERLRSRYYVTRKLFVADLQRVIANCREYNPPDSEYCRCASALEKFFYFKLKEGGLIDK
In another test the target is KAT2B (Homo sapiens (Human), UniProt Q92831). Kind of test: KAT2B acetyltransferase biochemical assay (RapidFire mass spectrometry, AcCoA to CoA). The note with it: read-out: KAT2B Ki at 1 μM AcCoA; 1 μM AcCoA, 5 μM H3 1-21 peptide, 0.5 nM KAT2B, 90-minute reaction.
KAT2B, sequence (Q92831 2-832): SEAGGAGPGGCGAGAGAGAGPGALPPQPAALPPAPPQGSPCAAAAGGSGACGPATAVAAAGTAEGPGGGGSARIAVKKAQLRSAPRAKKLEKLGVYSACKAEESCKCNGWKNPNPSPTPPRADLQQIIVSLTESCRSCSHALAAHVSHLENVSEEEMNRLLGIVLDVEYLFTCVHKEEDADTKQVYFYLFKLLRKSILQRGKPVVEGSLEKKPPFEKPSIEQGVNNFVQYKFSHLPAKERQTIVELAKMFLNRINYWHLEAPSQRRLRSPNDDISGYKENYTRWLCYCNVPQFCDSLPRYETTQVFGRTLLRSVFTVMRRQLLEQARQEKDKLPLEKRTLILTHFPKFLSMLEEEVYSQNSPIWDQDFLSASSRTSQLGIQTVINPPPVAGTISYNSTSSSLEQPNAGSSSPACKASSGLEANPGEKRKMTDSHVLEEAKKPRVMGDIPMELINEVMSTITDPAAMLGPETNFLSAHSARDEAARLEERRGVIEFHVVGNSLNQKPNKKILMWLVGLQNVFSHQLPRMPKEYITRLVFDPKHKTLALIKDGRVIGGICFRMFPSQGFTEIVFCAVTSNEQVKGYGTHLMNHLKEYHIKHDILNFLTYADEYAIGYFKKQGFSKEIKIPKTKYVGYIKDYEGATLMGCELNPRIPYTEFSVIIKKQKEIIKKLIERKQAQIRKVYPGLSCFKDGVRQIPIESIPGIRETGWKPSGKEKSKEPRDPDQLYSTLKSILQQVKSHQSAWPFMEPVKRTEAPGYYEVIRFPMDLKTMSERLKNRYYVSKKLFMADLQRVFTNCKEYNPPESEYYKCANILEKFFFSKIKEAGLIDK
[1] abbreviates: Homo sapiens, HT-1080, H3K9AC sandwich ELISA.

Read-outs that look alike come from different tables or passages of the source.

Consider `CC(C)(C(=O)NS(=O)(=O)N1CCC1)c1ccc(O[C@@H]2CC[C@@H](NC(=O)[C@@]3(F)CNC4(CCC4)C3)C2)c(-c2cccc(F)c2C2CCC2)c1` [Example C3, (7S)-N-{(1R,3R)-3-[(5-{1-[(azetidin-1-ylsulfonyl)amino]-2-methyl-1-oxopropan-2-yl}-2′-cyclobutyl-3′-fluorobiphenyl-2-yl)oxy]cyclopentyl}-7-fluoro-5-azaspiro[3.4]octane-7-carboxamide], for which the IC50 with H3K9AC (HT1080 cells) (setting [1]) turned out to be 3.84 nM; with MM.1S cells (Homo sapiens, MM1.S, 240 h) it was 6.22 nM. Besides, the results for the Ki at KAT2A and at KAT2B were 0.05 nM and 0.06 nM, respectively.
On the same counts, the results for `CC(C)S(=O)(=O)NC(=O)C(C)(C)c1ccc(O[C@@H]2CC[C@@H](NC(=O)[C@]3(F)CNC4(CCC4)C3)C2)c(-c2cccc(F)c2C2CCC2)c1` (single isomer, unassigned) [Example B4] are 3.12 nM, 8.38 nM, 0.14 nM and 0.15 nM.
In the same order, the values of `CN1CC(C)(C)C[C@H]1C(=O)N[C@H]1C[C@H](Oc2ccc(C(=O)O)cc2-c2cccc(F)c2C2CCC2)C[C@H]1O` (single isomer, unassigned) [Example K3, 2′-cyclobutyl-3′-fluoro-6-({(1ξ,3ξ,4ξ)-3-hydroxy-4-[(1,4,4-trimethyl-L-prolyl)amino]cyclopentyl}oxy)[1,1′-biphenyl]-3-carboxylic acid] are 4.29 nM, 15.9 nM, 0.19 nM and 0.56 nM.
On the same counts, the results for `CN1CC(C)(C)C[C@H]1C(=O)N[C@@H]1CC[C@@H](Oc2ccc(C(C)(C)C(=O)NS(=O)(=O)N(C)C)cc2-c2cccc(F)c2C2CCC2)C1` [Example E4, N-{(1R,3R)-3-[(2′-cyclobutyl-5-{1-[(dimethylsulfamoyl)amino]-2-methyl-1-oxopropan-2-yl}-3′-fluoro[1,1′-biphenyl]-2-yl)oxy]cyclopentyl}-1,4,4-trimethyl-L-prolinamide] are 8.38 nM, 15.9 nM, 0.08 nM and 0.21 nM.
As for `CCc1c(F)cccc1-c1cc(C(C)(C)C(=O)NS(=O)(=O)C(C)C)ccc1O[C@@H]1CC[C@@H](NC(=O)[C@@]2(F)CNC3(CCCC3)C2)C1` (single isomer, unassigned) [Example C29], the IC50 in the test with H3K9AC (HT1080 cells) (setting [1]) worked out at 1.86 nM; in the test with MM.1S cells (Homo sapiens, MM1.S, 240 h), 7.11 nM. In addition, the Ki worked out at 0.14 nM on KAT2A and 0.47 nM on KAT2B.
Regarding `CCc1c(F)cccc1-c1cc(C(C)(C)C(=O)NS(=O)(=O)C(C)C)ccc1O[C@@H]1CC[C@@H](NC(=O)[C@@]2(F)CNC3(CCC3)C2)C1` [Example C18, (7S)-N-[(1R,3R)-3-({2′-ethyl-3′-fluoro-5-[2-methyl-1-oxo-1-(propane-2-sulfonamido)propan-2-yl][1,1′-biphenyl]-2-yl}oxy)cyclopentyl]-7-fluoro-5-azaspiro[3.4]octane-7-carboxamide], the IC50 with H3K9AC (HT1080 cells) (setting [1]) came to 2.34 nM; with MM.1S cells (Homo sapiens, MM1.S, 240 h), 30.6 nM. Besides, the Ki came out at 0.1 nM at KAT2A and 0.31 nM at KAT2B.
On the same counts, the results for `CN(C)S(=O)(=O)NC(=O)C(C)(C)c1ccc(O[C@@H]2CC[C@@H](NC(=O)[C@@]3(F)CNC(C)(C)C3)C2)c(-c2cccc(F)c2C2CCC2)c1` (single isomer, unassigned) [Example C9] are 6.96 nM, 13.7 nM, 0.06 nM and 0.17 nM.
For `CN1CC(C)(C)C[C@H]1C(=O)N[C@@H]1CC[C@@H](Oc2ccc(C(C)(C)C(=O)NS(C)(=O)=O)cc2-c2cccc(F)c2C2CCC2)C1` [Example E1, N-{(1R,3R)-3-[(2′-cyclobutyl-3′-fluoro-5-{1-[(methanesulfonyl)amino]-2-methyl-1-oxopropan-2-yl}[1, 1′-biphenyl]-2-yl)oxy]cyclopentyl}-1,4,4-trimethyl-L-prolinamide], the IC50 was found to be 5.06 nM with H3K9AC (HT1080 cells) (setting [1]) and 31.5 nM with MM.1S cells (Homo sapiens, MM1.S, 240 h). Also, the figures for the Ki on KAT2A and at KAT2B were 0.15 nM and 0.38 nM, respectively.
On the same counts, the results for `CC1(C)C[C@@](F)(C(=O)N[C@@H]2CC[C@@H](Oc3ccc(C(C)(C)C(=O)NS(C)(=O)=O)cc3-c3cccc(F)c3C3CCC3)C2)CN1` (single isomer, unassigned) [Example C5] are 10.2 nM, 12.6 nM, 0.17 nM and 0.18 nM.
On the same counts, the results for `CC(C)(C(=O)O)c1ccc(O[C@@H]2CC[C@@H](NC(=O)[C@]3(F)CNC4(CCCC4)C3)C2)c(-c2cccc(F)c2C2CCC2)c1` (single isomer, unassigned) [Example A6] are 7.67 nM, 92.4 nM, 0.54 nM and 1.21 nM.
Consider `CC1(C)C[C@@](F)(C(=O)N[C@@H]2CC[C@@H](Oc3ccc(C(C)(C)C(=O)NS(=O)(=O)N4CCC4)cc3-c3cccc(F)c3C3CCC3)C2)CN1` (single isomer, unassigned) [Example C7], for which the IC50 in the test with H3K9AC (HT1080 cells) (setting [1]) worked out at 5.79 nM; with MM.1S cells (Homo sapiens, MM1.S, 240 h), 17.5 nM. Also, the Ki at KAT2A worked out at 0.07 nM; on KAT2B, 0.04 nM.
On to `CC(C)(C(=O)NS(C)(=O)=O)c1ccc(O[C@@H]2CC[C@@H](NC(=O)[C@@]3(F)CNC4(CCCC4)C3)C2)c(-c2cccc(F)c2C2CCC2)c1` (single isomer, unassigned) [Example C16], for which the results for the IC50 in the test on H3K9AC (HT1080 cells) (H3K9AC sandwich ELISA) and in the test on MM.1S cells were 23.2 nM and 81.8 nM, respectively. For the same compound, the inhibitory constant (Ki) on KAT2A was 0.08 nM; on KAT2B, 0.06 nM.
On to `CN1CC(C)(C)C[C@H]1C(=O)N[C@@H]1CC[C@@H](Oc2ccc(CC(=O)NS(=O)(=O)N(C)C)cc2-c2cccc(F)c2C2CCC2)C1` [Example E3, N-{(1R,3R)-3-[(2′-cyclobutyl-5-{2-[(dimethylsulfamoyl)amino]-2-oxoethyl}-3′-fluoro[1,1′-biphenyl]-2-yl)oxy]cyclopentyl}-1,4,4-trimethyl-L-prolinamide], for which the IC50 amounted to 0.84 nM with H3K9AC (HT1080 cells) (setting [1]) and 3.82 nM in the test with MM.1S cells (Homo sapiens, MM1.S, 240 h). The values for the Ki at KAT2A and on KAT2B were 0.03 nM and 0.02 nM, respectively.
For the compound `CC(C)(C(=O)NS(=O)(=O)C1(C)CC1)c1ccc(O[C@@H]2CC[C@@H](NC(=O)[C@@]3(F)CNC4(CCC4)C3)C2)c(-c2cccc(F)c2C2CC2)c1` (single isomer, unassigned) [Example C21], the IC50 amounted to 1.11 nM in the test on H3K9AC (HT1080 cells) (H3K9AC sandwich ELISA) and 13.7 nM in the test on MM.1S cells (Homo sapiens, MM1.S, 240 h). Also, the Ki on KAT2A is 0.09 nM; on KAT2B it was 0.11 nM.
As to `CCc1c(F)cccc1-c1cc(C(C)(C)C(=O)NS(C)(=O)=O)ccc1O[C@@H]1CC[C@@H](NC(=O)[C@]2(F)CNC3(CCC3)C2)C1` (single isomer, unassigned) [Example C12], the IC50 amounted to 11 nM in the test with H3K9AC (HT1080 cells) (setting [1]) and 89.6 nM in the test on MM.1S cells (Homo sapiens, MM1.S, 240 h). Moreover, the Ki at KAT2A amounted to 0.5 nM; on KAT2B it was 0.93 nM.
For the compound `CN1CC(C)(C)C[C@H]1C(=O)N[C@@H]1CC[C@@H](Oc2ccc(CC(=O)O)cc2-c2cccc(F)c2C2CCC2)C1` [Example D10, [2′-cyclobutyl-3′-fluoro-6-({(1R,3R)-3-[(1,4,4-trimethyl-L-prolyl)amino]cyclopentyl}oxy)[1,1′-biphenyl]-3-yl]acetic acid], the IC50 in the test with H3K9AC (HT1080 cells) (setting [1]) came to 39.2 nM; in the test with MM.1S cells (Homo sapiens, MM1.S, 240 h), 193 nM. Besides, the Ki on KAT2A is 9.48 nM; on KAT2B, 22.2 nM.
